# Publication PMC3661926 (Acta Neuropathologica, 2013)
# Read-outs that look alike come from different tables or passages of the source.
# What was measured:
# [1] = target: PrP^Sc (RML prion strain) (Mus musculus, UniProt P04925); assay: biochemical
# [2] = target: PrP^Sc (vCJD prions) (Homo sapiens, UniProt P04156); assay: biochemical
# [3] = test system: prion strains RML, ME7, 301C, sCJD, vCJD; type: biochemical, mouse and human; conditions: 1 μl of 10 mM compound solution in DMSO
# [4] = test system: RML scrapie; assay: whole plant or invertebrate; type: in vivo, C57BL/6 mice
# [5] = test system: RML scrapie; type: in vivo, C57BL/6 mice; conditions: for Median/Mean* Survival Therapy / difference of survival therapy vs control: C57BL/6, RML i.c., 250 mg/kg
# [6] = test system: rotenone-treated C57Bl/6J mice; conditions: mouse, in vivo
# [7] = test system: MPTP-treated mice; conditions: mouse, in vivo
# [8] = test system: actin; type: biochemical
# [9] = in vivo
# [10] = C57/BL6, mouse, in vivo
# [11] = mouse, in vivo, 2000 mg/kg
# [12] = rat, in vivo, 2000 mg/kg
# [13] = test system: Salmonella typhimurium strains TA 98, TA 100, TA 102, TA 1535 and TA 1537
# [14] = test system: cultured human peripheral lymphocytes
# [15] = in vivo; conditions: C57/BL6, mouse; for half-life: ip, 1 mg
# [16] = physchem; conditions: water
# PrP^Sc (RML prion strain), sequence (P04925 23-230 limits assumed): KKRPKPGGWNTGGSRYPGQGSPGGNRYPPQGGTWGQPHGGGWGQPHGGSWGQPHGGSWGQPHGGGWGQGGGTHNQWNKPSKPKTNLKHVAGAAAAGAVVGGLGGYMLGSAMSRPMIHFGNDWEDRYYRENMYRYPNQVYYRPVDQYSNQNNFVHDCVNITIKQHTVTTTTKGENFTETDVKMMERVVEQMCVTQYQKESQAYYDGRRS
structure (smiles),measurement,setting,value
"Brc1cccc(-c2cc(-c3ccc4c(c3)OCO4)n[nH]2)c1 [anle138b, 3-(1,3-benzodioxol-5-yl)-5-(3-bromophenyl)-1H-pyrazole]",EC50,[1],7.3 µM
same,inhibition at 10 µM,[1]; read-out: % inhibition PrP^Sc PMCA,84%
same,EC50,[2],7.1 µM
same,"inhibitory activity in PMCA, all prion strains tested",[3],strong inhibitory activity in all prion strains tested
same,% inhibition PrP^Sc in vivo (c),"[4]; PrP^Sc level in brain 106 days after i.c. infection, treatment 24 days: 14 days i.p. 0.84 mg, 2 × 5 days oral gavage 1 mg",108%
same,% inhibition PrP^Sc in vivo (b),"[4]; PrP^Sc level in spleen 35 days after i.p. infection, 34 days treatment with 1 mg compound oral in peanut butter",57%
same,"change of PrPSc levels in brain, mixed application scheme","[4]; from 80 dpi: 14 days i.p. 0.84 mg, 2 x 5 days gavage 1 mg, measured at 95 and 106 dpi",decrease in PrPSc levels
same,inhibition in vivo at 1 mg,"[4]; in Mus musculus, po, 2880 h, read-out: % inhibition PrP^Sc in vivo (a)",78%
same,motor performance in prion infected mice,"[5]; 160 d.p.i., arena movement tracking",unimpaired
same,Median/Mean* Survival Therapy,[5]; 0 dpi oral,355 days
same,difference of survival therapy vs control,[5]; 0 dpi oral,175 days
same,Median/Mean* Survival Therapy,[5]; 80 dpi oral,242 days
same,difference of survival therapy vs control,[5]; 80 dpi oral,74 days
same,Median/Mean* Survival Therapy,[5]; 120 dpi oral,224 days
same,difference of survival therapy vs control,[5]; 120 dpi oral,52 days
same,size distribution of PrP^Sc aggregates (sucrose-gradient centrifugation),"[5]; brain homogenates of treated mice, fractions 7–12",strong reduction of high molecular weight species
same,"pyknotic nuclei, cerebellar granule cell layer","[5]; mouse, in vivo",significantly reduced number of pyknotic nuclei
same,time for which weight loss is prevented,[5]; treatment from 80 dpi onwards,~ 100 days
same,time for which further weight loss is inhibited,[5]; treatment from 120 dpi,~ 70 days
same,Median survival,[5]; treatment from day 80 post i.c. infection (5 mg daily oral),"242,5"
same,Median survival,[5]; treatment from day 120 post i.c. infection (5 mg daily oral),"224,0"
same,1-h stool collection gut motility test,[6],complete rescue of enteric function
same,motor performance (Rotarod),[6],significantly improved motor performance
same,loss of dopaminergic (TH-positive) neurons in substantia nigra,[7],significantly ameliorated
same,effect on actin polymerization,[8],do not affect actin polymerization
same,"metabolites in brain extracts (HPLC, high resolution MS)","[9]; C57/BL6, mouse",did not identify metabolites of anle138b
same,conc. brain,"[9]; mouse, po",34.1 nmol/g
same,AUC after oral application compared to i.p. application,[10],approximately 50%
same,"acute toxicity, single oral administration",[11],did not reveal any signs of toxicity and no mortality
same,"acute toxicity, single oral administration",[12],not reveal any signs of toxicity and no mortality
same,concentration with test item precipitation,[13],≥ 100 µg/plate
same,"cytotoxicity, preliminary test",[13],No signs of cytotoxicity
same,mutagenic effect (revertant colony numbers),[13],No mutagenic effect
same,"clastogenic activity, conclusion",[14],no indications of mutagenic properties
same,Kp,[15],~3
same,half-life,[15]; half-life t½ in brain,174 min
same,half-life,[15]; half-life t½ in serum,144 min
same,solubility,[16],< 1 µM
